This passage reports DC50 and Ymin results from patent US20240368118A1, “CEREBLON BINDING COMPOUNDS, COMPOSITIONS THEREOF, AND METHODS OF TREATMENT THEREWITH” (CELGENE CORPORATION, priority 2021, published 2024).

The assay addresses T1, AR (Homo sapiens, UniProt P10275).
T1 construct: endogenous in cells; host or cells: VCaP cells
T1 sequence (P10275 1-920): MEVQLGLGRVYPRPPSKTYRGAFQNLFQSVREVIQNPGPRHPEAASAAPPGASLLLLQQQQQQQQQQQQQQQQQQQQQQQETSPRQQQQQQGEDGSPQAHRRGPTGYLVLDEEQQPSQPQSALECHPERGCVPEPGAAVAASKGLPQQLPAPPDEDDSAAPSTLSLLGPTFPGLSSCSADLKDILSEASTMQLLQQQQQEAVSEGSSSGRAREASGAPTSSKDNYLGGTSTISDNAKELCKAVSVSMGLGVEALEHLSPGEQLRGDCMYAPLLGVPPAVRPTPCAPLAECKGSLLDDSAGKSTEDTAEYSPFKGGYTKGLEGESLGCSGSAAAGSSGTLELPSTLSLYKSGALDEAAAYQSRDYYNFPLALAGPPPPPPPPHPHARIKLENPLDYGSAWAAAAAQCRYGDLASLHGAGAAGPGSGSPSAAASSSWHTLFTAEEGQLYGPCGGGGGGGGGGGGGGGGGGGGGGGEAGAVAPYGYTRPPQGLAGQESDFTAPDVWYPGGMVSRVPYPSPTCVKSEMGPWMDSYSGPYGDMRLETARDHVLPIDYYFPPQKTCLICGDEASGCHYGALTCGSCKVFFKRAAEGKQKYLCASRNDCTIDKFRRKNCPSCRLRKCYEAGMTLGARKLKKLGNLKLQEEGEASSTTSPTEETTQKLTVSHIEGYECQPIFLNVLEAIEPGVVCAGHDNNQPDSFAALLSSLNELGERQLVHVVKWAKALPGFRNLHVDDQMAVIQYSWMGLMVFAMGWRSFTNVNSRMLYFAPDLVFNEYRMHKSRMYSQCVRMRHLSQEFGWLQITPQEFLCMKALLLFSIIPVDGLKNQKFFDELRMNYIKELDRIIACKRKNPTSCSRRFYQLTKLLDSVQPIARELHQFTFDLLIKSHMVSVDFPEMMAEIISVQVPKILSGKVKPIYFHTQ
The experiment in a line: VCAP AR Degradation Assay. Format: cell-based. The following applies: VCaP cells, 24 h; for DC50: AR ELISA, concentration when AR level = 50% of DMSO control; for Ymin: lowest AR level normalized to DMSO control. The protocol: VCAP AR Degradation Assay. Test compounds were pre-dispensed into a Corning CellBind 96-well clear bottom plate (Cat #3300) using an acoustic dispenser to make a 10-point concentration series at 1:3 dilution for each compound. The final top concentration of each compound was 5 μM. DMSO at a final concentration of 0.1% was used as a control. VCaP cells cultured in DMEM with 8% fetal bovine serum (FBS) were seeded at 50K cells per well in a 200 μL volume into the compound plate and incubated at 37° C. in a C02 incubator for 24 h. The medium was carefully removed from the cells and the plate was placed on ice. One hundred μL of ice-cold 1× cell lysis buffer from Cell Signaling Technologies (Cat #9803) was added to each well of the cells and the plate was incubated at 4° C. on a shaker for 1 h. Fifteen μL of cell lysate was used for AR ELISA detection using a PathScan Total Sandwich AR ELISA kit (Cell Signaling Technology, Cat #12580). AR levels in compound-treated wells were normalized to that of DMSO control and expressed as percent of control (PoC) (y). A Four Parameter Logistic Model (Sigmoidal Dose-Response Model) was used to determine the compound's DC50, and EC50, using the following equation: […]
The lowest measured AR level normalized to DMSO control in response to compound treatment, termed Y value, was used to characterize the compound-mediated AR degradation efficiency.
In general terms: In an ELISA, binding on a coated surface is turned into a signal by an enzyme label.

Structures are written as SMILES. Counter-ions that a name gives are not always drawn.

What is called DC50 is the midpoint of the concentration-degradation curve. A high value points to degradation only at high concentration. `C[C@@H]1CN(CCC[C@H]2CC[C@H](N3C(=S)N(c4ccc(C#N)c(Cl)c4)C(=O)C3(C)C)CC2)C[C@H](C)N1CC(=O)Nc1ccc(C2CCC(=O)NC2=O)cc1` (stereo partly drawn) [Cmpd 17, 2-((2S,6R)-4-(3-(trans-4-(3-(3-Chloro-4-cyanophenyl)-5,5-dimethyl-4-oxo-2-thioxoimidazolidin-1-yl)cyclohexyl)propyl)-2,6-dimethylpiperazin-1-yl)-N-(4-(2,6-dioxopiperidin-3-yl)phenyl)acetamide hydrochloride] gave a DC50 of 5 to 15 nM. Moreover, the Ymin result (class symbols) is “*** (30%<Y<80%)”.

`C[C@@H]1CN(CCC[C@H]2CC[C@H](N3C(=S)N(c4cnc(C#N)c(Cl)c4)C(=O)C3(C)C)CC2)C[C@H](C)N1CC(=O)Nc1ccc(C2CCC(=O)NC2=O)cc1` (stereo partly drawn) [Cmpd 16, 2-((2R,6S)-4-(3-(trans-4-(3-(5-Chloro-6-cyanopyridin-3-yl)-5,5-dimethyl-4-oxo-2-thioxoimidazolidin-1-yl)cyclohexyl)propyl)-2,6-dimethylpiperazin-1-yl)-N-(4-(2,6-dioxopiperidin-3-yl)phenyl)acetamide hydrochloride] displayed a DC50 of 5 to 15 nM. The Ymin result (class symbols) is “*** (30%<Y<80%)”.

The compound `CC1(C)C(=O)N(c2ccc(C#N)c(C(F)(F)F)c2)C(=S)N1[C@H]1CC[C@H](OCCC2CCN(CC(=O)Nc3ccc(C4CCC(=O)NC4=O)cc3)CC2(F)F)CC1` (stereo partly drawn) [Cmpd 43, 2-(4-(2-(((trans)-4-(3-(4-Cyano-3-(trifluoromethyl)phenyl)-5,5-dimethyl-4-oxo-2-thioxoimidazolidin-1-yl)cyclohexyl)oxy)ethyl)-3,3-difluoropiperidin-1-yl)-N-(4-(2,6-dioxopiperidin-3-yl)phenyl)acetamide] came in with a DC50 of no more than 5 nM. Further, the Ymin (given as numbers) is 18 % of DMSO control.

In turn, `C[C@@H]1CN(CCO[C@H]2CC[C@H](N3C(=S)N(c4cnc(C#N)c(C(F)(F)F)c4)C(=O)C3(C)C)CC2)C[C@H](C)N1CC(=O)Nc1ccc(C2CCC(=O)NC2=O)cc1` (stereo partly drawn) [Cmpd 6, 2-((2R,6S)-4-(2-((trans-4-(3-(6-Cyano-5-(trifluoromethyl)pyridin-3-yl)-5,5-dimethyl-4-oxo-2-thioxoimidazolidin-1-yl)cyclohexyl)oxy)ethyl)-2,6-dimethylpiperazin-1-yl)-N-(4-(2,6-dioxopiperidin-3-yl)phenyl)acetamide hydrochloride] yielded a 50% degradation concentration (DC50) of no more than 5 nM. Moreover, the Ymin result (class symbols) is on record as “*** (30%<Y<80%)”.

Take `C[C@@H]1CN(CCCC[C@H]2CC[C@H](N3C(=S)N(c4ccc(C#N)c(C(F)(F)F)c4)C(=O)C3(C)C)CC2)C[C@H](C)N1CC(=O)Nc1cccc(N2CCC(=O)NC2=O)c1` [Cmpd 25, 2-((2R,6S)-4-(4-((trans)-4-(3-(4-Cyano-3-(trifluoromethyl)phenyl)-5,5-dimethyl-4-oxo-2-thioxoimidazolidin-1-yl)cyclohexyl)butyl)-2,6-dimethylpiperazin-1-yl)-N-(3-(2,4-dioxotetrahydropyrimidin-1(2H)-yl)phenyl)acetamide]: the DC50 lay in the range of 5 to 15 nM. The Ymin (given as numbers) was 24 % of DMSO control.

Consider `C[C@@H]1CN(CCO[C@H]2CC[C@H](N3C(=S)N(c4ccc(C#N)c(C(F)(F)F)c4)C(=O)C3(C)C)CC2)C[C@H](C)N1CC(=O)Nc1ccc(C2CCC(=O)NC2=O)cc1` (stereo partly drawn) [Cmpd 2, 2-((2S,6R)-4-(2-((trans-4-(3-(4-Cyano-3-(trifluoromethyl)phenyl)-5,5-dimethyl-4-oxo-2-thioxoimidazolidin-1-yl)cyclohexyl)oxy)ethyl)-2,6-dimethylpiperazin-1-yl)-N-(4-(2,6-dioxopiperidin-3-yl)phenyl)acetamide hydrochloride], for which the DC50 is 5 to 15 nM. For the same compound, the Ymin entry (class symbols) is on record as “*** (30%<Y<80%)”.

For `CC1(C)C(=O)N(c2ccc(C#N)c(C(F)(F)F)c2)C(=S)N1[C@H]1CC[C@H](OCCN2CCN(CC(=O)Nc3ccc(C4CCC(=O)NC4=O)cc3)[C@@H](C(F)(F)F)C2)CC1` (stereo partly drawn) [Cmpd 23, 2-((R)-4-(2-((trans-4-(3-(4-Cyano-3-(trifluoromethyl)phenyl)-5,5-dimethyl-4-oxo-2-thioxoimidazolidin-1-yl)cyclohexyl)oxy)ethyl)-2-(trifluoromethyl)piperazin-1-yl)-N-(4-(2,6-dioxopiperidin-3-yl)phenyl)acetamide hydrochloride], the DC50 was in the range of 5 to 15 nM. The Ymin entry (class symbols) is recorded as “* (0<Y≤20%)”.

`C[C@@H]1CN(CCCO[C@H]2CC[C@H](N3C(=S)N(c4cnc(C#N)c(C(F)(F)F)c4)C(=O)C3(C)C)CC2)C[C@H](C)N1CC(=O)Nc1ccc(C2CCC(=O)NC2=O)cc1` (stereo partly drawn) [Cmpd 13, 2-((2R,6S)-4-(3-((trans-4-(3-(6-Cyano-5-(trifluoromethyl)pyridin-3-yl)-5,5-dimethyl-4-oxo-2-thioxoimidazolidin-1-yl)cyclohexyl)oxy)propyl)-2,6-dimethylpiperazin-1-yl)-N-(4-(2,6-dioxopiperidin-3-yl)phenyl)acetamide hydrochloride]: the half-maximal degradation concentration (DC50) is no more than 5 nM. Further, where the note is “class symbols”, the Ymin result is recorded as “** (20%<Y≤30%)”.

As to `C[C@@H]1CN(CCCO[C@H]2CC[C@H](N3C(=S)N(c4ccc(C#N)c(Cl)c4)C(=O)C3(C)C)CC2)C[C@H](C)N1CC(=O)Nc1ccc(C2CCC(=O)NC2=O)cc1` (stereo partly drawn) [Cmpd 14, 2-((2R,6S)-4-(3-((trans-4-(3-(3-Chloro-4-cyanophenyl)-5,5-dimethyl-4-oxo-2-thioxoimidazolidin-1-yl)cyclohexyl)oxy)propyl)-2,6-dimethylpiperazin-1-yl)-N-(4-(2,6-dioxopiperidin-3-yl)phenyl)acetamide hydrochloride], the 50% degradation concentration (DC50) is no more than 5 nM. The Ymin entry (class symbols) is reported as “* (0<Y≤20%)”.

Consider `C[C@@H]1C[C@H](CCO[C@H]2CC[C@H](N3C(=S)N(c4ccc(C#N)c(C(F)(F)F)c4)C(=O)C3(C)C)CC2)C[C@H](C)N1CC(=O)Nc1ccc(C2CCC(=O)NC2=O)cc1` (stereo partly drawn) [Cmpd 22, 2-((2R,4r,6S)-4-(2-((trans-4-(3-(4-Cyano-3-(trifluoromethyl)phenyl)-5,5-dimethyl-4-oxo-2-thioxoimidazolidin-1-yl)cyclohexyl)oxy)ethyl)-2,6-dimethylpiperidin-1-yl)-N-(4-(2,6-dioxopiperidin-3-yl)phenyl)acetamide hydrochloride], for which the half-maximal degradation concentration (DC50) is no more than 5 nM. Further, the Ymin entry (class symbols) is on record as “* (0<Y≤20%)”.

As to `C[C@@H]1C[C@@H](CCO[C@H]2CC[C@H](N3C(=S)N(c4cnc(C#N)c(C(F)(F)F)c4)C(=O)C3(C)C)CC2)C[C@H](C)N1CC(=O)Nc1ccc(C2CCC(=O)NC2=O)cc1` (stereo partly drawn) [Cmpd 29, 2-((2R,4s,6S)-4-(2-(((trans)-4-(3-(6-Cyano-5-(trifluoromethyl)pyridin-3-yl)-5,5-dimethyl-4-oxo-2-thioxoimidazolidin-1-yl)cyclohexyl)oxy)ethyl)-2,6-dimethylpiperidin-1-yl)-N-(4-(2,6-dioxopiperidin-3-yl)phenyl)acetamide], the DC50 is no more than 5 nM. Further, the Ymin (given as numbers) was 15 % of DMSO control.

`C[C@@H]1CN(CCO[C@H]2CC[C@H](N3C(=S)N(c4ccc(C#N)c(Cl)c4)C(=O)C3(C)C)CC2)C[C@H](C)N1CC(=O)Nc1ccc(C2CCC(=O)NC2=O)cc1` (stereo partly drawn) [Cmpd 4, 2-((2R,6S)-4-(2-((trans-4-(3-(3-Chloro-4-cyanophenyl)-5,5-dimethyl-4-oxo-2-thioxoimidazolidin-1-yl)cyclohexyl)oxy)ethyl)-2,6-dimethylpiperazin-1-yl)-N-(4-(2,6-dioxopiperidin-3-yl)phenyl)acetamide hydrochloride] came in with a half-maximal degradation concentration (DC50) of no more than 5 nM. Further, the Ymin result (class symbols) is “*** (30%<Y<80%)”.
